Results taken from patent US10023570B2 (Array BioPharma, Inc., priority 2015, dated 2018).
Structures can show the parent of a compound that is named as a salt. Where two headings read alike, the source gives them in different places.

How the values were obtained:
[1] = target: N-terminal GST tagged recombinant human RET cytoplasmic domain (aa 658-end), wild type RET kinase (Homo sapiens (Human), UniProt P07949); experiment: RET Enzyme Assay (HTRF KinEASE-TK), wild type RET; type: biochemical
[2] = target: Kif5b-RET fusion protein in HEK-293 cells (Homo sapiens, UniProt P07949); experiment: cell-based
Method: The cellular potency of a compound inhibiting RET kinase was determined in HEK-293 cells expressing a Kif5b-RET fusion protein. Briefly, HEK-293 cells expressing a Kif5b-RET fusion protein were plated at 50K cells/well in 96 well poly-D-Lysine coated plates the day prior to the assay. The cells were incubated for 1 hour with test compound in DMEM (Dulbecco's Modified Eagle Medium) at a final DMSO concentration of 0.5%. […] After 1 hour the media was removed, the cells were fixed with 3.8% formaldehyde for 20 min, washed with PBS, and permeabilized for 10 min with 100% methanol. […] All antibodies were diluted in LI-COR Block containing 0.05% Tween. The plates were washed with PBS-0.05% Tween20, 100 μL PBS was added to each well, and the plates were read on a LI-COR Aerius fluorescent plate reader. The phospho-RET signal was normalized to the GAPDH signal. […] The IC50 value is the point where the curve crosses 50 POC.

[3] = HEK-293 cells expressing Kif5b-RET, read-out: KIF5B-RET pTYR1062 Cell IC50
[4] = HEK-293 cells expressing Kif5b-RET, phospho-RET(Tyr1062), read-out: KIF5B-RET pTYR1062 Cell IC50
[5] = read-out: KIF5B-RET pTYR1062 Cell IC50

Sequence of N-terminal GST tagged recombinant human RET cytoplasmic domain (aa 658-end), wild type RET kinase (P07949 658-1114): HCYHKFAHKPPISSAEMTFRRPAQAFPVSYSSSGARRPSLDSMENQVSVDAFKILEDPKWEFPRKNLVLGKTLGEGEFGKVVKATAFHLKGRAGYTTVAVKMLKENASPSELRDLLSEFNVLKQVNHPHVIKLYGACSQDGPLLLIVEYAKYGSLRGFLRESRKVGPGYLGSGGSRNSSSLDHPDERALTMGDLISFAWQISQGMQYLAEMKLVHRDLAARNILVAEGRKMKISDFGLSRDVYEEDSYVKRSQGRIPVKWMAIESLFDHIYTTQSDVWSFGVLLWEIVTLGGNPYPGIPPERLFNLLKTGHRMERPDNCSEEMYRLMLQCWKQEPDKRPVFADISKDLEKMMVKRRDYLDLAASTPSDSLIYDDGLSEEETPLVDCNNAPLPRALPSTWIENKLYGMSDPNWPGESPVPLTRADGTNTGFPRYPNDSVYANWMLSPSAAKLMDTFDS
Sequence of Kif5b-RET fusion protein in HEK-293 cells (P07949 29-1114 limits assumed): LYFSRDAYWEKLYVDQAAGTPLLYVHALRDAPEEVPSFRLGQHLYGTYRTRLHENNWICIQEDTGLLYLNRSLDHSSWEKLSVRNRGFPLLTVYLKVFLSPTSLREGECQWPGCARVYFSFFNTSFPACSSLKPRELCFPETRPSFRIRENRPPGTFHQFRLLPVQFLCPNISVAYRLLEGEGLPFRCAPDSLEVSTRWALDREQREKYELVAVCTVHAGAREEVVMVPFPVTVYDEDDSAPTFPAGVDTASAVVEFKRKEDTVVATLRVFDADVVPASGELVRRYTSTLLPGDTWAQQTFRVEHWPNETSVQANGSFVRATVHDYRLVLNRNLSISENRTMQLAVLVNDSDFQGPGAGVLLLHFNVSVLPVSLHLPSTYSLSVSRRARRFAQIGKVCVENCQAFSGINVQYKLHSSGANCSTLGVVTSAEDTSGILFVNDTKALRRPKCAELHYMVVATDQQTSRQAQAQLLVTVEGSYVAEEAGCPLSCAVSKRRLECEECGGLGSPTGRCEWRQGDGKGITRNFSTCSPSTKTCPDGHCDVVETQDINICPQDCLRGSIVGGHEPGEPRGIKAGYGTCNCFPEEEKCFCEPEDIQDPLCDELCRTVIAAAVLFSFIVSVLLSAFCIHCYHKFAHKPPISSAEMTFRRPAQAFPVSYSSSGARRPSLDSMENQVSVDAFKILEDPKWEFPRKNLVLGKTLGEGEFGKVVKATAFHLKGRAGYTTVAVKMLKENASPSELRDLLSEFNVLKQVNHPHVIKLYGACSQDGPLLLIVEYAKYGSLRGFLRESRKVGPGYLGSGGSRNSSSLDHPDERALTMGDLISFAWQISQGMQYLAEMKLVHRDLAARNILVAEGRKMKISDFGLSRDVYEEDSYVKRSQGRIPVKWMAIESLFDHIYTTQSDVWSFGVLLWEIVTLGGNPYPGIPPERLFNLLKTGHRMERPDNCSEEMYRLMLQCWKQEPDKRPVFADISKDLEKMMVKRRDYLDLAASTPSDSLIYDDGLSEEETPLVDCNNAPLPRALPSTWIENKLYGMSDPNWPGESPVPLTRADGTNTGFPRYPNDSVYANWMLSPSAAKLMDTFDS

Row | Compound | IC50 ([1]; wild type RET, 1 mM ATP) | IC50 [2, 4] | other results
1 | COc1ccc(CN2CCN(c3ccc(-c4cc(-c5cnn(CC(C)CO)c5)cn5ncc(C#N)c45)cn3)CC2)cn1 (stereo in doubt) [Example 707, (R)-6-(1-(3-hydroxy-2-methylpropyl)-1H-pyrazol-4-yl)-4-(6-(4-((6-methoxypyridin-3-yl)methyl)piperazin-1-yl)pyridin-3-yl)pyrazolo[1,5-a]pyridine-3-carbonitrile] | 20.1 nM |  | IC50 [2, 3]: 6.5 nM
2 | COc1ccc(CN2CCN(c3ccc(-c4cc(-c5cnn(CC(C)CO)c5)cn5ncc(C#N)c45)cn3)CC2)cn1 (stereo in doubt) [Example 708, (S)-6-(1-(3-hydroxy-2-methylpropyl)-1H-pyrazol-4-yl)-4-(6-(4-((6-methoxypyridin-3-yl)methyl)piperazin-1-yl)pyridin-3-yl)pyrazolo[1,5-a]pyridine-3-carbonitrile] | 19.4 nM |  | IC50 [2, 3]: 7 nM
3 | Cn1cc(-c2cc(-c3ccc(N4CCN(C(=O)OC(C)(C)C)CC4)nc3)c3c(C#N)cnn3c2)cn1 [Example 1, tert-butyl 4-(5-(3-cyano-6-(1-methyl-1H-pyrazol-4-yl)pyrazolo[1,5-a]pyridin-4-yl)pyridin-2-yl)piperazine-1-carboxylate] | 35.8 nM | 47.5 nM | 
4 | Cn1cc(-c2cc(-c3ccc(N4CCN(C(=O)CCS(C)(=O)=O)CC4)nc3)c3c(C#N)cnn3c2)cn1 [Example 3, 6-(1-methyl-1H-pyrazol-4-yl)-4-(6-(4-(3-(methylsulfonyl)propanoyl)piperazin-1-yl)pyridin-3-yl)pyrazolo[1,5-a]pyridine-3-carbonitrile] | 11.9 nM | 119 nM | 
5 | CN(C)CCC(=O)N1CCN(c2ccc(-c3cc(-c4cnn(C)c4)cn4ncc(C#N)c34)cn2)CC1 [Example 33, 4-(6-(4-(3-(dimethylamino)propanoyl)piperazin-1-yl)pyridin-3-yl)-6-(1-methyl-1H-pyrazol-4-yl)pyrazolo[1,5-a]pyridine-3-carbonitrile bis(2,2,2-trifluoroacetate)] | 42.9 nM |  | IC50 [2, 5]: 310 nM
6 | CN(C)CCCC(=O)N1CCN(c2ccc(-c3cc(-c4cnn(C)c4)cn4ncc(C#N)c34)cn2)CC1 [Example 52, 4-(6-(4-(4-(dimethylamino)butanoyl)piperazin-1-yl)pyridin-3-yl)-6-(1-methyl-1H-pyrazol-4-yl)pyrazolo[1,5-a]pyridine-3-carbonitrile bis(2,2,2-trifluoroacetate)] |  | 340 nM | IC50 [1]: 17.7 nM
7 | CC[C@@H](CO)NC(=O)N1CCN(c2ccc(-c3cc(-c4cnn(C)c4)cn4ncc(C#N)c34)cn2)CC1 [Example 122, (S)-4-(5-(3-cyano-6-(1-methyl-1H-pyrazol-4-yl)pyrazolo[1,5-a]pyridin-4-yl)pyridin-2-yl)-N-(1-hydroxybutan-2-yl)piperazine-1-carboxamide] | 11.3 nM | 267 nM | 
8 | C[C@H](O)C(=O)NC1CCN(c2ccc(-c3cc(-c4cnn(C)c4)cn4ncc(C#N)c34)cn2)CC1 [Example 180, (S)-N-(1-(5-(3-cyano-6-(1-methyl-1H-pyrazol-4-yl)pyrazolo[1,5-a]pyridin-4-yl)pyridin-2-yl)piperidin-4-yl)-2-hydroxypropanamide] | 13.6 nM | 135 nM | 
9 | CC(C)C(=O)N[C@H]1CCCN(c2ccc(-c3cc(-c4cnn(C)c4)cn4ncc(C#N)c34)cn2)C1 [Example 225, (S)—N-(1-(5-(3-cyano-6-(1-methyl-1H-pyrazol-4-yl)pyrazolo[1,5-a]pyridin-4-yl)pyridin-2-yl)piperidin-3-yl)isobutyramide] | 104 nM | 462 nM | 
10 | CC(C)NC(=O)[C@@H]1CCCN(c2ccc(-c3cc(-c4cnn(C)c4)cn4ncc(C#N)c34)cn2)C1 [Example 229, (R)-1-(5-(3-cyano-6-(1-methyl-1H-pyrazol-4-yl)pyrazolo[1,5-a]pyridin-4-yl)pyridin-2-yl)-N-isopropylpiperidine-3-carboxamide] | 334 nM |  | 
11 | CC(C)NC(=O)[C@H]1CCCN(c2ccc(-c3cc(-c4cnn(C)c4)cn4ncc(C#N)c34)cn2)C1 [Example 230, (S)-1-(5-(3-cyano-6-(1-methyl-1H-pyrazol-4-yl)pyrazolo[1,5-a]pyridin-4-yl)pyridin-2-yl)-N-isopropylpiperidine-3-carboxamide] | 242 nM |  | 
12 | CC(O)CN(C)C(=O)C1CCN(c2ccc(-c3cc(-c4cnn(C)c4)cn4ncc(C#N)c34)cn2)CC1 (stereo not drawn) [Example 245, 1-(5-(3-cyano-6-(1-methyl-1H-pyrazol-4-yl)pyrazolo[1,5-a]pyridin-4-yl)pyridin-2-yl)-N-(2-hydroxypropyl)-N-methylpiperidine-4-carboxamide] | 30.2 nM | 191 nM | 
13 | CC(C)(C)OC(=O)N1CCN(c2ccc(-c3cc(-c4cnn(C(F)F)c4)cn4ncc(C#N)c34)cn2)CC1 [Example 265, tert-Butyl 4-(5-(3-cyano-6-(1-(difluoromethyl)-1H-pyrazol-4-yl)pyrazolo[1,5-a]pyridin-4-yl)pyridin-2-yl)piperazine-1-carboxylate] | 153 nM | 289 nM | 
14 | N#Cc1cnn2cc(-c3cnn(C(F)F)c3)cc(-c3ccc(N4CCNCC4)nc3)c12 [Example 266, 6-(1-(difluoromethyl)-1H-pyrazol-4-yl)-4-(6-(piperazin-1-yl)pyridin-3-yl)pyrazolo[1,5-a]pyridine-3-carbonitrile dihydrochloride] | 47.7 nM |  | IC50 [2, 5]: 162 nM
15 | Cc1cc(-c2cc(-c3cnn(C)c3)cn3ncc(C#N)c23)cnc1N1CCN(C(=O)OC(C)(C)C)CC1 [Example 275, tert-Butyl 4-(5-(3-cyano-6-(1-methyl-1H-pyrazol-4-yl)pyrazolo[1,5-a]pyridin-4-yl)-3-methylpyridin-2-yl)piperazine-1-carboxylate] | 1500 nM |  | 
16 | Cc1cc(-c2cc(-c3cnn(C)c3)cn3ncc(C#N)c23)cnc1N1CCNCC1 [Example 276, 6-(1-methyl-1H-pyrazol-4-yl)-4-(5-methyl-6-(piperazin-1-yl)pyridin-3-yl)pyrazolo[1,5-a]pyridine-3-carbonitrile dihydrochloride] | 395 nM |  | 
17 | Cc1cc(-c2cc(-c3cnn(C)c3)cn3ncc(C#N)c23)cnc1N1CCN(C(=O)CC(C)(C)O)CC1 [Example 277, 4-(6-(4-(3-hydroxy-3-methylbutanoyl)piperazin-1-yl)-5-methylpyridin-3-yl)-6-(1-methyl-1H-pyrazol-4-yl)pyrazolo[1,5-a]pyridine-3-carbonitrile] | 300 nM |  | 
18 | Cc1cc(-c2cc(-c3cnn(C)c3)cn3ncc(C#N)c23)cnc1N1CCN(C(=O)CC(C)(C)C)CC1 [Example 279, 4-(6-(4-(3,3-dimethylbutanoyl)piperazin-1-yl)-5-methylpyridin-3-yl)-6-(1-methyl-1H-pyrazol-4-yl)pyrazolo[1,5-a]pyridine-3-carbonitrile] | 318 nM |  | 
19 | Cn1cc(-c2cc(-c3ccc(N4CCNCC4)nc3)c3ccnn3c2)cn1 [Example 312, 6-(1-methyl-1H-pyrazol-4-yl)-4-(6-(piperazin-1-yl)pyridin-3-yl)pyrazolo[1,5-a]pyridine dihydrochloride] |  |  | IC50 [1]: 607 nM
20 | Cn1cc(-c2cc(-c3ccc(N4CCN(C(=O)OC(C)(C)C)CC4)nc3)c3c(Cl)cnn3c2)cn1 [Example 325, tert-butyl 4-(5-(3-chloro-6-(1-methyl-1H-pyrazol-4-yl)pyrazolo[1,5-a]pyridin-4-yl)pyridin-2-yl)piperazine-1-carboxylate] | 372 nM | 742 nM | 
21 | CNC(=O)N1CCN(c2ccc(-c3cc(-c4cnn(C)c4)cn4ncc(C#N)c34)cn2)CC1 [Example 387, 4-(5-(3-cyano-6-(1-methyl-1H-pyrazol-4-yl)pyrazolo[1,5-a]pyridin-4-yl)pyridin-2-yl)-N-methylpiperazine-1-carboxamide] | 25.1 nM |  | IC50 [2]: 53.2 nM
22 | Cn1cc(-c2cc(-c3ccc(N4CCN(C(=O)OC(C)(C)C)CC4)nc3)c3c(Br)cnn3c2)cn1 [Example 649, tert-butyl 4-(5-(3-bromo-6-(1-methyl-1H-pyrazol-4-yl)pyrazolo[1,5-a]pyridin-4-yl)pyridin-2-yl)piperazine-1-carboxylate] | 656 nM |  | 
23 | Cc1cnn2cc(-c3cnn(C)c3)cc(-c3ccc(N4CCN(C(=O)OC(C)(C)C)CC4)nc3)c12 [Example 650, tert-butyl 4-(5-(3-methyl-6-(1-methyl-1H-pyrazol-4-yl)pyrazolo[1,5-a]pyridin-4-yl)pyridin-2-yl)piperazine-1-carboxylate] | 345 nM |  | 
24 | Cc1cnn2cc(-c3cnn(C)c3)cc(-c3ccc(N4CCNCC4)nc3)c12 [Example 651, 3-methyl-6-(1-methyl-1H-pyrazol-4-yl)-4-(6-(piperazin-1-yl)pyridin-3-yl)pyrazolo[1,5-a]pyridine] | 208 nM |  | 
25 | COc1ccc(CN2CCN(c3ccc(-c4cc(-c5cnn(C(F)F)c5)cn5ncc(C#N)c45)cn3)CC2)cn1 [Example 696, 6-(1-(difluoromethyl)-1H-pyrazol-4-yl)-4-(6-(4-((6-methoxypyridin-3-yl)methyl)piperazin-1-yl)pyridin-3-yl)pyrazolo[1,5-a]pyridine-3-carbonitrile] |  |  | IC50 [2, 3]: 16.1 nM
